The experiment concerns P388 leukemia ip, CD2F1 mice, survival T/C. The experiment can be described thus: NCI In Vivo Anticancer Drug Screen. Data for tumor model P388 Leukemia (intraperitoneal) in CD2F1 (CDF1) mice. The following applies: endpoint: median survival time, higher = longer survival. The gist of the method: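 Mice carrying the transplanted tumor received test compound or vehicle. Survival was recorded in each group, and the value is the treated-group measurement divided by that of the vehicle-treated control group.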

Where [1] appears, read: dose: 60.0 mg/kg/injection, schedule: Q01DX005 (ip), vehicle: Klucel (hydroxypropylcellulose) (HPC).
[2] abbreviates: dose: 120.0 mg/kg/injection, schedule: Q01DX005 (ip), vehicle: Klucel (hydroxypropylcellulose) (HPC).
Where [3] appears, read: dose: 240.0 mg/kg/injection, schedule: Q01DX005 (ip), vehicle: Klucel (hydroxypropylcellulose) (HPC).
Where [4] appears, read: dose: 50.0 mg/kg/injection, schedule: Q01DX009 (ip), vehicle: saline with Tween-80.
[5] abbreviates: dose: 100.0 mg/kg/injection, schedule: Q01DX009 (ip), vehicle: saline with Tween-80.
Where [6] appears, read: dose: 200.0 mg/kg/injection, schedule: Q01DX009 (ip), vehicle: saline with Tween-80.
The mark [7] stands for this setting: dose: 400.0 mg/kg/injection, schedule: Q01DX009 (ip), vehicle: saline with Tween-80.
Where [8] appears, read: dose: 60.0 mg/kg/injection, schedule: Q01DX005 (ip), vehicle: saline with Tween-80.
Setting [9] is: dose: 120.0 mg/kg/injection, schedule: Q01DX005 (ip), vehicle: saline with Tween-80.
Where [10] appears, read: dose: 240.0 mg/kg/injection, schedule: Q01DX005 (ip), vehicle: saline with Tween-80.
[11] abbreviates: dose: 50.0 mg/kg/injection, schedule: Q01DX009 (ip), vehicle: saline.
Setting [12] is: dose: 100.0 mg/kg/injection, schedule: Q01DX009 (ip), vehicle: saline.
The mark [13] stands for this setting: dose: 200.0 mg/kg/injection, schedule: Q01DX009 (ip), vehicle: saline.
Where [14] appears, read: dose: 25.0 mg/kg/injection, schedule: Q01DX009 (ip), vehicle: saline with Tween-80.
The mark [15] stands for this setting: dose: 100.0 mg/kg/injection, schedule: Q01DX001 (ip), vehicle: saline with Tween-80.
[16] abbreviates: dose: 200.0 mg/kg/injection, schedule: Q01DX001 (ip), vehicle: saline with Tween-80.
Where [17] appears, read: dose: 400.0 mg/kg/injection, schedule: Q01DX001 (ip), vehicle: saline with Tween-80.
The mark [18] stands for this setting: dose: 50.0 mg/kg/injection, schedule: Q01DX005 (ip), vehicle: saline.
[19] abbreviates: dose: 100.0 mg/kg/injection, schedule: Q01DX005 (ip), vehicle: saline.
Where [20] appears, read: dose: 50.0 mg/kg/injection, schedule: Q01DX005 (ip), vehicle: saline with Tween-80.
The mark [21] stands for this setting: dose: 100.0 mg/kg/injection, schedule: Q01DX005 (ip), vehicle: saline with Tween-80.

Several values for one entry are separate records, joined by “and”; a condition that tells them apart may be missing. Equal entries are not always repeated. Inconclusive results and toxic doses are left out. Square brackets hold non-standard residues; d marks the D form. Peptide text beside a SMILES is read from it. ξ: configuration not given here. ξH = NC(Cc1c[nH]cn1)C(=O)O

Consider 23 molecules from PubChem BioAssay AID330 (DTP/NCI, 2004).

As for `O=C(COc1ccc2c(=O)c3ccccc3oc2c1)N/N=C/c1ccc(N(CCCl)CCCl)cc1`, the T/C under setting [1] is 97 % of control, the T/C under setting [2] was 95 % of control and the T/C under setting [3] is 94 % of control.
For the molecule `CCCCC(C)C(=O)/C=C/c1ccccc1` (stereo not given), the T/C is, setting by setting: under setting [4], 107 % of control and 120 % of control; under setting [5], 108 % of control and 118 % of control; under setting [6], 120 % of control; under setting [7], 117 % of control.
On to `O=C(NCCCCCCNC(=O)OCOC(=O)NCCCCCCNC(=O)Nc1ccc(SCCO)cc1)Nc1ccc(SCCO)cc1`, for which the T/C was 102 % of control (dose: 100.0 mg/kg/injection, schedule: Q04DX003 (ip), vehicle: saline); 102 % of control (dose: 200.0 mg/kg/injection, schedule: Q04DX003 (ip), vehicle: saline); 99 % of control (dose: 400.0 mg/kg/injection, schedule: Q04DX003 (ip), vehicle: saline).
On to `CN(C)c1ncnc2c1ncn2CCn1cnc2c(N(C)C)ncnc21`, for which the T/C is 97 % of control (dose: 12.5 mg/kg/injection, schedule: Q01DX005 (ip), vehicle: Klucel (hydroxypropylcellulose) (HPC)); 100 % of control (dose: 25.0 mg/kg/injection, schedule: Q01DX005 (ip), vehicle: Klucel (hydroxypropylcellulose) (HPC)); 100 % of control and 90 % of control (dose: 50.0 mg/kg/injection, schedule: Q01DX005 (ip), vehicle: Klucel (hydroxypropylcellulose) (HPC)); 90 % of control (dose: 100.0 mg/kg/injection, schedule: Q01DX005 (ip), vehicle: Klucel (hydroxypropylcellulose) (HPC)).
For the molecule `CSc1nc(N)c(NS(=O)(=O)c2cccc(N)c2)c(=O)[nH]1`, the T/C runs as follows: under setting [8], 100 % of control; under setting [9], 99 % of control; under setting [10], 99 % of control.
Regarding `CCO/C([O-])=C(\C=N\[n+]1ccccc1C)c1ccccc1`, the T/C reads like this: under setting [11], 109 % of control; under setting [12], 110 % of control; under setting [13], 109 % of control.
As to `CCOC(=O)c1c[nH][nH]c1=O`, the T/C is 95 % of control under setting [14]; 93 % of control under setting [4]; 98 % of control under setting [15]; 101 % of control under setting [5]; 106 % of control under setting [16]; 100 % of control under setting [6]. The T/C under setting [17] was 94 % of control.
Regarding `CN(c1c(N)nc(N)nc1N)S(=O)(=O)c1ccc([N+](=O)[O-])cc1`, the T/C reads like this: under setting [1], 108 % of control; under setting [2], 104 % of control; under setting [3], 100 % of control.
Consider `NCC(=O)NCC(=O)NC(Cc1cnc[nH]1)C(=O)O` (stereo not drawn) (H-Gly-Gly-[ξH]-OH), for which the T/C runs as follows: under setting [18], 103 % of control; under setting [19], 96 % of control; (dose: 200.0 mg/kg/injection, schedule: Q01DX005 (ip), vehicle: saline) 104 % of control.
`Nc1ccc2nc(-c3ccccc3)c(=O)oc2c1`: the T/C is, setting by setting: under setting [8], 97 % of control; under setting [9], 98 % of control.
Take `CCOC(=O)Nc1cc(NC/C(CN(C)c2ccc(OC)cc2)=N/O)c([N+](=O)[O-])c(N)n1`: the T/C under setting [20] was 86 % of control and the T/C under setting [21] is 86 % of control.
`Cc1csc(N2C(=O)c3cccc4cccc(c34)C2=O)n1`: the T/C by setting is: under setting [8], 110 % of control; under setting [9], 96 % of control; under setting [10], 96 % of control.
Take `O=C(C(Br)C(Br)c1ccccc1)N1CCOCC1` (stereo not given): the T/C runs as follows: under setting [5], 118 % of control; (dose: 178.0 mg/kg/injection, schedule: Q01DX009 (ip), vehicle: saline with Tween-80) 113 % of control; (dose: 266.0 mg/kg/injection, schedule: Q01DX009 (ip), vehicle: saline with Tween-80) 119 % of control; under setting [7], 121 % of control.
As for `Oc1ccc2ccccc2c1N=Nc1ccc(F)cc1`, the T/C runs as follows: (dose: 100.0 mg/kg/injection, schedule: Q04DX003 (ip), vehicle: saline with Tween-80) 100 % of control; (dose: 200.0 mg/kg/injection, schedule: Q04DX003 (ip), vehicle: saline with Tween-80) 100 % of control; (dose: 400.0 mg/kg/injection, schedule: Q04DX003 (ip), vehicle: saline with Tween-80) 104 % of control.
On to `NC(=S)c1ccc(N=Cc2cccc([N+](=O)[O-])c2)cc1`, for which the T/C reads like this: (dose: 100.0 mg/kg/injection, schedule: Q01DX001 (ip), vehicle: Klucel (hydroxypropylcellulose) (HPC)) 98 % of control; (dose: 200.0 mg/kg/injection, schedule: Q01DX001 (ip), vehicle: Klucel (hydroxypropylcellulose) (HPC)) 124 % of control; (dose: 400.0 mg/kg/injection, schedule: Q01DX001 (ip), vehicle: Klucel (hydroxypropylcellulose) (HPC)) 104 % of control.
Turning to `CN1C(=O)/C(=C2\SC(=O)N(CNc3ccc(Br)cc3)C2=O)c2ccccc21`, the T/C was 88 % of control (dose: 60.0 mg/kg/injection, schedule: Q01DX005 (ip), vehicle: Klucel + Tween-80) and 89 % of control (dose: 240.0 mg/kg/injection, schedule: Q01DX005 (ip), vehicle: Klucel + Tween-80).
Take `CCCN(CCC)C(C)C(O)c1cccc2ccccc12` (stereo not given): the T/C by setting is: under setting [18], 97 % of control; under setting [19], 109 % of control.
For the molecule `CC12CCC3c4ccc(OP(=O)(N5CC5)N5CC5)cc4CCC3C1CCC2O` (stereo not given), the T/C by setting is: (dose: 12.5 mg/kg/injection, schedule: Q01DX009 (ip), vehicle: saline with Tween-80) 96 % of control and 97 % of control; under setting [14], 110 % of control and 96 % of control; under setting [4], 100 % of control and 92 % of control; under setting [5], 115 % of control.
With `O=C(O)O`, the T/C runs as follows: (dose: 25.0 mg/kg/injection, schedule: Q01DX009 (ip), vehicle: saline) 102 % of control; under setting [11], 94 % of control and 93 % of control; under setting [5], 100 % of control; under setting [12], 99 % of control and 95 % of control; under setting [6], 95 % of control; under setting [13], 98 % of control and 102 % of control. For the same molecule, the T/C (dose: 200.0 mg/kg/injection, schedule: Q04DX003 (ip), vehicle: saline sonified) was 100 % of control; the T/C (dose: 0.25 % in 0.5 ml injection vol, schedule: Q01DX009 (ip), vehicle: water) is 98 % of control; the T/C (dose: 400.0 mg/kg/injection, schedule: Q04DX003 (ip), vehicle: saline sonified) is 100 % of control; the T/C (dose: 0.5 % in 0.5 ml injection vol, schedule: Q01DX009 (ip), vehicle: water) was 100 % of control; the T/C (dose: 1.0 % in 0.5 ml injection vol, schedule: Q01DX009 (ip), vehicle: water) was 102 % of control; the T/C (dose: 4.0 % in 0.5 ml injection vol, schedule: Q01DX009 (ip), vehicle: water) was 100 % of control and 102 % of control. In addition, under “dose: 8.0 % in 0.5 ml injection vol, schedule: Q01DX009 (ip), vehicle: water”, the T/C is 99 % of control and 95 % of control.
Consider `CCCCN(CCCC)/N=N\N(CCCC)CCCC`, for which the T/C (dose: 12.5 mg/kg/injection, schedule: Q01DX005 (ip), vehicle: saline with Tween-80) is 104 % of control and 93 % of control; the T/C (dose: 25.0 mg/kg/injection, schedule: Q01DX005 (ip), vehicle: saline with Tween-80) was 104 % of control and 90 % of control; the T/C under setting [20] is 107 % of control and 93 % of control and 94 % of control; the T/C under setting [21] was 98 % of control and 100 % of control and 97 % of control; the T/C (dose: 200.0 mg/kg/injection, schedule: Q01DX005 (ip), vehicle: saline with Tween-80) is 105 % of control.
As to `Nc1cc(Cl)c2[nH]cnc2n1`, the T/C is 102 % of control (dose: 25.0 mg/kg/injection, schedule: Q01DX005 (ip), vehicle: distilled water + Tween-80); 111 % of control (dose: 50.0 mg/kg/injection, schedule: Q01DX005 (ip), vehicle: distilled water + Tween-80); 152 % of control (dose: 200.0 mg/kg/injection, schedule: Q01DX005 (ip), vehicle: distilled water + Tween-80).
As for `C=CC(=O)CC1(C(=O)OC)NC(=S)NC(=O)C1C#N` (stereo not given), the T/C by setting is: under setting [1], 102 % of control; under setting [2], 102 % of control; under setting [3], 98 % of control.
In the case of `COc1cc(/C=C/C(=O)c2ccc(Nc3ccnc4cc(Cl)ccc34)cc2)cc(OC)c1OC`, the T/C by setting is: under setting [15], 102 % of control; under setting [16], 97 % of control; under setting [17], 93 % of control.
